What follows are compounds tested against T1, YAP-TEAD interaction (full length human TEAD1-Gal4 fusion, full length YAP mutant S127A, S397A) (UniProt P04386+P28347) (assay: Cell-based TEAD-GAL4 transactivation assay (luciferase reporter, HEK293)). Conditions: HEK293 cells, compounds 0.1 μM to 30 μM, 24 h, concentration that inhibited the luciferase activity by 50%.
T1 construct: The TEAD1 construct was prepared by cloning the full length human TEAD1 cDNA; expressed in transfected cells; host or cells: HEK293 GripTite 293 MSR (Invitrogen R795-07), transiently transfected with pSG5_CMV plasmids
Method: To identify inhibitors of YAP-TEAD interaction, a transient transactivation assays was carried out into HEK293 cell line (HEK293 GripTite™ 293 MSR (Invitrogen R795-07)) using plasmids containing the full length TEAD1 sequences, the full length YAP mutant (S127A, S397A) and a luciferase gene reporter. All expression constructs were performed into pSG5 backbone plasmid in which the SV40 promoter was replaced by the CMV promoter. The TEAD1 construct was prepared by cloning the full length human TEAD1 cDNA in fusion with the Gal4 DNA Binding Domain (AA 1-148) into pSG5_CMV to create the TEAD1(FL)_hum_pSG5Gal4_CMV. The full length YAP mutant (S127A, S397A) was also cloned into pSG_5 CMV to create the YAP(FL)_hum_pSG5_[…]. The reporter plasmid GAL4(5×RE)_[…]_pGL3-Basic contains 5 copies of the GAL4 responsive element (5′-TCGGAGGACAGTACTCC-3′) upstream of the thymidine kinase (TK) promoter (−105/+56) inserted in a pGL3-Basic vector. To evaluate the selectivity of our compounds in blocking the YAP-TEAD interaction, a counter-screening protein-protein interaction transactivation assays was also established. Briefly, two other expression plasmids, the pBD-P53 which express the P53 (AA 72-390) in fusion with Gal4 and the pAD-SV40T which express the SV40 large T antigen (AA 84-708,AgT), were created. HEK293 cells were seeded at 5×10^4 cells/well in 96 well plates (assay plates) in DMEM medium containing 4.5 g/L D-glucose, 10% high inactivated (HI) fetal bovine serum 1% Glutamax, 1% non-essential amino acid and 1% sodium pyruvate and 0.5% penicillin/streptomycin 37° C. in a humidified atmosphere of 8% CO2. After 24 h, transfections are performed using Jet-PEI as transfectant (101B-010 Polyplus Transfection), according to the instructions of the manufacturer (N/P=10) and a ratio YAP/TEAD=10 (per well: 50 ng of YAP(FL), 5 ng of TEAD(FL) and 50 ng of reporter plasmid). Six hours after cell transfection, the plates (‘assay plate’) were washed with 100 μl PBS per well and cell were treated with compounds in semi-log from 0.1 μM to 30 μM or DMSO 0.5% as control in DMEM 4.5 g/L D-Glucose without phenol red, 0.3% BSA, 1% glutamax, 1% NEAA, 1% sodium pyruvate. Twenty-four hours later, the luciferase activity was determined after addition of 100 μl of Steady Glo™ luciferase assay system (Promega E2550) according to the manufacturer's directions. Luciferase activity in cell extracts is measured by reading luminescence using the Envision device.
The cellular response was determined by fitting the concentration response curves using a 3-parameter curve fit equation and determining the concentration that inhibited the luciferase activity by 50%.

T1 sequence (P04386+P28347 fused, stated change not applied): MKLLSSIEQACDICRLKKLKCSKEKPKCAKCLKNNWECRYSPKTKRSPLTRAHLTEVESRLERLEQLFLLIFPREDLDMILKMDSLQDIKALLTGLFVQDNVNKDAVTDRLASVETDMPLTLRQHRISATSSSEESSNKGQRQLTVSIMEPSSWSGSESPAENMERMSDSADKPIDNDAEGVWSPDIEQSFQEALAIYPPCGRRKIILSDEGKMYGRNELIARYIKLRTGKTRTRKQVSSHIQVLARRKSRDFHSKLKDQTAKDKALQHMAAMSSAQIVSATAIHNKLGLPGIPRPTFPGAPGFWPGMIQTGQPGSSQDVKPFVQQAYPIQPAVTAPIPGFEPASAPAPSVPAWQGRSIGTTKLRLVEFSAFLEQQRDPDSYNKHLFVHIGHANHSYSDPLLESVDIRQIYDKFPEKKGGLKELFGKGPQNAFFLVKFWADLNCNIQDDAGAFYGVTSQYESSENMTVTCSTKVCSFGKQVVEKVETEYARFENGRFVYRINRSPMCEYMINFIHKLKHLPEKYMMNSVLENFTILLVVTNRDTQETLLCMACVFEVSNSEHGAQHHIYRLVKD

`COc1cc(/C=N/N(CCc2ccccn2)C2=NS(=O)(=O)c3ccccc32)ccc1F` [Ex 9, N-[(E)-(4-fluoro-3-methoxy-phenyl)methyleneamino]-1,1-dioxo-N-[2-(2-pyridyl)ethyl]-1,2-benzothiazol-3-amine] and `CCOCCN(/N=C/c1ccc(F)c(OC)c1)C1=NS(=O)(=O)c2ccccc21` [Ex 43, N-(2-ethoxyethyl)-N-[(E)-(4-fluoro-3-methoxy-phenyl)methyleneamino]-1,1-dioxo-1,2-benzothiazol-3-amine] are within 1.5-fold of each other in IC50: 3.94 µM for the first, 2.78 µM for the second.

`CN(/N=C/c1ccc(F)c(C(N)=O)c1)C1=NS(=O)(=O)c2ccccc21` [Ex 17, 5-[(E)-[(1,1-dioxo-1,2-benzothiazol-3-yl)-methyl-hydrazono]methyl]-2-fluoro-benzamide] and `CC(C)Oc1cc(/C=N/N(C)C2=NS(=O)(=O)c3ccccc32)ccc1F` [Ex 13, N-[(E)-(4-fluoro-3-isopropoxy-phenyl)methyleneamino]-N-methyl-1,1-dioxo-1,2-benzothiazol-3-amine] are within 1.5-fold of each other in IC50: 2.75 µM for the first, 3.35 µM for the second.

Going from `CCC1(CC)C(=O)Nc2ccc(/C=N/N(CC(C)C)C3=NS(=O)(=O)c4cc(O)ccc43)cc21` [Ex 96, 3,3-diethyl-5-[(E)-[(6-hydroxy-1,1-dioxo-1,2-benzothiazol-3-yl)-isobutyl-hydrazono]methyl]indolin-2-one] to `CCC1(CC)C(=O)Nc2ccc(/C=N/N(CC(C)C)C3=NS(=O)(=O)c4cc(OC)ccc43)cc21` [Ex 98, 3,3-diethyl-5-[(E)-[isobutyl-(6-methoxy-1,1-dioxo-1,2-benzothiazol-3-yl) hydrazono]methyl]indolin-2-one], the IC50 falls from 10.4 µM to 3.92 µM (2.7-fold).

`CCCC(=O)OCn1c(=O)n(C2CCC2)c2cc(/C=N/N(C)C3=NS(=O)(=O)c4ccccc43)ccc21` [Ex 114, [3-cyclobutyl-5-[(E)-[(1,1-dioxo-1,2-benzothiazol-3-yl)-methyl-hydrazono]methyl]-2-oxo-benzimidazol-1-yl]methyl butanoate] and `CN(/N=C/c1ccc2c(c1)n(C1CCC1)c(=O)n2COC(=O)C(C)(C)C)C1=NS(=O)(=O)c2ccccc21` [Ex 113, [3-cyclobutyl-5-[(E)-[(1,1-dioxo-1,2-benzothiazol-3-yl)-methyl-hydrazono]methyl]-2-oxo-benzimidazol-1-yl]methyl 2,2-dimethylpropanoate] are within 1.5-fold of each other in IC50: 4.95 µM for the first, 4 µM for the second.

Going from `COc1cc(/C=N/N(C)C2=NS(=O)(=O)c3cc(B4OCC(C)(C)CO4)ccc32)ccc1F` [Ex 59, 6-(5,5-dimethyl-1,3,2-dioxaborinan-2-yl)-N-[(E)-(4-fluoro-3-methoxy-phenyl)methyleneamino]-N-methyl-1,1-dioxo-1,2-benzothiazol-3-amine] to `COc1cc(/C=N/N(C)C2=NS(=O)(=O)c3ccc(OCCN(C)C)cc32)ccc1F` [Ex 57, 5-[2-(dimethylamino)ethoxy]-N-[(E)-(4-fluoro-3-methoxy-phenyl)methyleneamino]-N-methyl-1,1-dioxo-1,2-benzothiazol-3-amine], the IC50 falls from 3.55 µM to 0.53 µM (6.7-fold). The second is the more potent here.

First: CNC(=O)COc1ccc2c(c1)C(N(CC(C)C)/N=C/c1ccc(F)c(OC)c1)=NS2(=O)=O [Ex 105, 2-[[3-[[(E)-(4-fluoro-3-methoxy-phenyl)methyleneamino]-isobutyl-amino]-1,1-dioxo-1,2-benzothiazol-5-yl]oxy]-N-methyl-acetamide]
Second: COc1cc(/C=N/N(CC(C)C)C2=NS(=O)(=O)c3ccc(OCB(O)O)cc32)ccc1F [Ex 95, [3-[[(E)-(4-fluoro-3-methoxy-phenyl)methyleneamino]-isobutyl-amino]-1,1-dioxo-1,2-benzothiazol-5-yl]oxymethylboronic acid]
The IC50 of the first is 3.7-fold higher: 4.94 µM for the first, 1.35 µM for the second. The second is the more potent here.

First: CC(C)n1c(=O)[nH]c2ccc(/C=N/N(C)C3=NS(=O)(=O)c4ccccc43)cc21 [Ex 26, 5-[(E)-[(1,1-dioxo-1,2-benzothiazol-3-yl)-methyl-hydrazono]methyl]-3-isopropyl-1H-benzimidazol-2-one]
Second: CN(/N=C/c1ccc2[nH]c(=O)n(C3CC3)c2c1)C1=NS(=O)(=O)c2ccccc21 [Ex 27, 3-cyclopropyl-5-[(E)-[(1,1-dioxo-1,2-benzothiazol-3-yl)-methyl-hydrazono]methyl]-1H-benzimidazol-2-one]
The IC50 of the first is 4.7-fold lower: 0.62 µM for the first, 2.92 µM for the second.

First: CCOc1ccc2c(c1)S(=O)(=O)N=C2N(CC(C)C)/N=C/c1ccc2c(c1)C(CC)(CC)C(=O)N2 [Ex 97, 5-[(E)-[(6-ethoxy-1,1-dioxo-1,2-benzothiazol-3-yl)-isobutyl-hydrazono]methyl]-3,3-diethyl-indolin-2-one]
Second: CCn1c(=O)[nH]c2ccc(/C=N/N(CC(C)C)C3=NS(=O)(=O)c4cc(B(O)O)ccc43)cc21 [Ex 84, [3-[[(E)-(3-ethyl-2-oxo-1H-benzimidazol-5-yl)methyleneamino]-isobutyl-amino]-1,1-dioxo-1,2-benzothiazol-6-yl]boronic acid]
The IC50 of the first is 1.7-fold higher: 2.77 µM for the first, 1.67 µM for the second. The second is the more potent here.

Going from `COc1cc(/C=N/N(C2=NS(=O)(=O)c3cc(B(O)O)ccc32)C(C)C)ccc1F` [Ex 102, [3-[[(E)-(4-fluoro-3-methoxy-phenyl)methyleneamino]-isopropyl-amino]-1,1-dioxo-1,2-benzothiazol-6-yl]boronic acid] to `COc1cc(/C=N/N(CC(C)C)C2=NS(=O)(=O)c3cc(B(O)O)ccc32)ccc1F` [Ex 63, [3-[[(E)-(4-fluoro-3-methoxy-phenyl)methyleneamino]-isobutyl-amino]-1,1-dioxo-1,2-benzothiazol-6-yl]boronic acid], the IC50 falls from 3.01 µM to 1.08 µM (2.8-fold).

Compared with `CCN(/N=C/c1ccc(F)c(OC)c1)C1=NS(=O)(=O)c2cc(B(O)O)ccc21` [Ex 62, [3-[ethyl-[(E)-(4-fluoro-3-methoxy-phenyl)methyleneamino]amino]-1,1-dioxo-1,2-benzothiazol-6-yl]boronic acid], `COc1cc(/C=N/N(CC2CCC2)C2=NS(=O)(=O)c3cc(B(O)O)ccc32)ccc1F` [Ex 80, [3-[cyclobutylmethyl-[(E)-(4-fluoro-3-methoxy-phenyl)methyleneamino]amino]-1,1-dioxo-1,2-benzothiazol-6-yl]boronic acid] is 1.9-fold lower in IC50: 1.98 µM for the first, 1.07 µM for the second. The second is the more potent here.

Going from `CC(C)CN(/N=C/c1ccc2[nH]c(=O)n(C)c2c1)C1=NS(=O)(=O)c2cc(B(O)O)ccc21` [Ex 65, [3-[isobutyl-[(E)-(3-methyl-2-oxo-1H-benzimidazol-5-yl)methyleneamino]amino]-1,1-dioxo-1,2-benzothiazol-6-yl]boronic acid] to `Cc1ccc2c(c1)C(N(C)/N=C/c1ccc3[nH]c(=O)n(C)c3c1)=NS2(=O)=O` [Ex 70, 3-methyl-5-[(E)-[methyl-(5-methyl-1,1-dioxo-1,2-benzothiazol-3-yl) hydrazono]methyl]-1H-benzimidazol-2-one], the IC50 falls from 4.04 µM to 1.58 µM (2.6-fold). The second is the more potent here.

First: COc1cc(C2=NN(C3=NS(=O)(=O)c4ccccc43)CC(C)(C)C2)ccc1F [Ex 110, 3-[6-(4-fluoro-3-methoxy-phenyl)-4,4-dimethyl-3,5-dihydropyridazin-2-yl]-1,2-benzothiazole 1,1-dioxide]
Second: CN(/N=C/c1cnc(-c2ccccc2)s1)C1=NS(=O)(=O)c2ccccc21 [Ex 8, N-methyl-1,1-dioxo-N-[(E)-(2-phenylthiazol-5-yl)methyleneamino]-1,2-benzothiazol-3-amine]
The IC50 of the first is 1.6-fold lower: 3.23 µM for the first, 5.19 µM for the second. The first is the more potent here.

`COc1cc(/C=N/N(CC(C)C)C2=NS(=O)(=O)c3cc(OCB4OC(=O)CN(C)CC(=O)O4)ccc32)ccc1F` [Ex 106, 2-[[3-[[(E)-(4-fluoro-3-methoxy-phenyl)methyleneamino]-isobutyl-amino]-1,1-dioxo-1,2-benzothiazol-6-yl]oxymethyl]-6-methyl-1,3,6,2-dioxaza-borocane-4,8-dione] showed an IC50 of 0.94 µM.

Same assay, conditions: HEK293 cells, compounds 0.1 μM to 30 μM, 24 h, luciferase activity

With `COc1cc(/C=N/N(CC(C)C)C2=NS(=O)(=O)c3cc(OCC(N)=O)ccc32)ccc1F` [Ex 104, 2-[[3-[[(E)-(4-fluoro-3-methoxy-phenyl)methyleneamino]-isobutyl. amino]-1,1-dioxo-1,2-benzothiazol-6-yl]oxy]acetamide] the “Max Act. (%), TEAD-GAL4 Transactivation activity” value was 72%.
